Reference: patent US6960430B2, “Screening methods for compounds useful in the regulation of cell proliferation” (priority 1999, dated 2005)
“Also recorded” adds a separate entry of the source.

Experiments:
[1] = tested on: tetracycline-regulated transactivator protein tTA; assay: Hsp72 expression from adenovirus vector controlled by tetracycline-regulated transactivator in Rat-1 cells, immunoblot; assay type: cell-based; conditions: 20 nM
From the text: Recombinant adenovirus vector expressing Hsp72 (ADTR5Hsp72-GFP, curtesy of Dr. Mosser, Biotechnology Research Institute, Montreal) was constructed by cloning a dicistronic transcription unit encoding Hsp72 and Aequorea Victoria green fluorescent protein gene, separated by the encephalomyocarditis virus internal ribosome entry site from pTR-DC/Hsp70-GFP (Mosser et al., 1997a, Mol. Cell Biol, 17: 5317-5327; Mosser et al., 1997b, Biotechniques 22: 150-161) into an adenovirus transfer vector. Expression of this transcription unit is controlled by the tetracycline-regulated transactivator protein tTA (Mosser et al., 1997b, Biotechniques 22: 150-161) which we expressed from a separate recombinant adenovirus. Recombinant adenoviruses were generated by standard techniques as detailed by (Jani et al., 1997, J. Virol. Methods 64: 111-124). Viruses were used at stock concentration of 10^10 pfu/ml. […] Two-ml cell cultures grown in liquid medium in 35 mm dishes were infected in the presence or the absence of anhydrotetracycline with 3·10^7 pfu of each virus, sufficient for infection of almost 100% cells, and additional 10^7 pfu of each virus was added on days three and seven. After 24 hours incubation with viruses, cells were washed with PBS and placed in fresh media with or without anhydrotetracycline. […]

MVH cells = assay: Apoptosis by Hoechst-33342 staining in MVH cells (Rat-1 variant constitutively expressing Hsp72); assay type: cell-based; conditions: heat shock 45° C., 50 min, 0.5 mM, apoptosis assessed 7 hr after treatment
Description: The level of apoptosis was measured by fluorescent microscopy using Hoechst-33342 DNA-specific dye (10 μM). Shrinked cells with condensed or fragmented nuclei were counted as apoptotic. Cells were washed twice with PBS on a dish, aspirated and lysed by thoroughly scraping with a plastic scraper in 200 μL lysis buffer per a 35 mm dish (40 mM HEPES, pH 7.5; 50 mM KCl; […]; 2 mM DTT, 1 mM Na3VO4; 50 mM β-glycerophosphate; 50 mM NaF; 5 mM EDTA; 5 mM EGTA; 1 mM PMSF; 1 mM benzamedine; 5 μg/ml of each: leupeptine, pepstatine A, aprotenin). The lysates were clarified by centrifugation in a microcentrifuge at 15,000 rpm for 5 min. Total protein concentration was measured in the supernatants after which they were diluted with the lysis buffer to achieve equivalent concentration in all samples. All procedures were performed at 4° C.

JNK phosphatase(s) [2] = conditions: various cell lines; cited from earlier work
JNK phosphatase(s) [3] = assay: JNK inactivation (dephosphorylation) after heat shock in Hsp72-expressing MVH cells, immunoblot with antibody to phospho-JNK; assay type: cell-based, rat; conditions: for JNK inactivation / JNK dephosphorylation in heat-shocked MVH cells: 0.5 mM added 1 hr after heat shock (45° C., 50 min), recovery at 37° C., JNK1 by phospho-JNK antibody; for JNK activity, drug alone: unstressed cells, vanadate alone
From the text: Another assay for JNK activity allowed us to measure separately activity of two major isoforms (46 kDa JNK1 and 54 kDa JNK2) using JNK antibody specific to activated (phosphorylated) form of JNK (Promega, Wis.). For immunoblot analysis samples were subjected to Western immunoblotting. Secondary antibodies conjugated with peroxidase were visualized with ECL substrates (Amersham, Arlington Heights, Ill.) and resulting films were quantified by densitometry. Measurement of JNK phosphatase activity. In vivo INK phosphatase activity was measured as described earlier (Meriin, A. B., et al., 1999, Mol. Cell Biol. (In press)). […] […] The rate of JNK dephosphorylation was assessed under these conditions by immunoblotting with antibody which recognizes the activated (phosphorylated) form of JNK specifically.

Cc1c2c(c(O)c3c(O)cccc13)C(=O)[C@]1(O)C(=O)C(C(N)=O)=C(O)[C@@H](N(C)C)[C@@H]1C2 [anhydrotetracycline]
Hsp72 expression after infection with both adenoviruses [1]: expression of Hsp72 in the absence of tetracycline but not in the presence of 20 nM of anhydrotetracycline

[O]=[V]([O-])([O-])[O-] [ortho-vanadate]
heat-induced apoptosis of MVH cells (thermoresistance, anti-apoptotic effect of Hsp72) (MVH cells; listed as Ortho-vanadate): abolishes thermoresistance
heat-induced apoptosis of MVH cells (thermoresistance, anti-apoptotic effect of Hsp72) (MVH cells; listed as vanadate): completely reversed anti-apoptotic effect of Hsp72; also recorded: dramatically increased
suppression of JNK phosphatase(s) (JNK phosphatase(s) [2]): effectively suppresses JNK phosphatase(s)
JNK inactivation / JNK dephosphorylation in heat-shocked MVH cells (JNK phosphatase(s) [3]): strongly inhibited JNK inactivation
JNK inactivation / JNK dephosphorylation in heat-shocked MVH cells (JNK phosphatase(s) [3]; listed as Ortho-vanadate): inhibits JNK dephosphorylation
JNK activity, drug alone (JNK phosphatase(s) [3]; listed as Ortho-vanadate): no significant effect on JNK activity
JNK activity, drug alone (JNK phosphatase(s) [3]; listed as vanadate): affected neither JNK activity
